Experimental data published in PMC5814585, “Modulators of actin-myosin dissociation: basis for muscle type functional differences during fatigue” (American Journal of Physiology - Cell Physiology, 2017).
Where “and” joins values, the source holds several entries; their conditions need not be identical. Equal entries are not always repeated.

Legend:
actin.PsoS1 [1] = experiment: ADP dissociation constant (KADP) by competitive inhibition of ATP-induced dissociation, psoas; assay type: binding, rabbit; conditions: for kobs of ATP-induced dissociation with ADP present: 25 µM ATP, 20°C
Method: In a similar process, ADP dissociation constant (KADP), which defines ADP affinity for actin.S1, was measured by adding to the mixture ADP as a competitive inhibitor of ATP binding. […] This approach assumes that ADP is in rapid equilibrium with the actin.S1 complex on the time scale of the ATP-induced dissociation reaction. This was ensured by using the low (25 µM) concentration of ATP. That this assumption holds was tested by repeating the measurement with ADP preincubated with actin.S1 and then mixing with ATP. The observed rate constants were identical in each case.
(§1) (4)) kobs=K1k+2[ATP]/[1+([I]/KI)]

actin.MassS1 [2] = target: T1, actin.MassS1 (Bos taurus, UniProt Q9BE39); experiment: ADP dissociation constant in the presence of phosphate (KADP+Pi) and calculated KPi app, masseter; assay type: binding, bovine; conditions: 15 mM Pi
T1 construct: from tissue; host or cells: bovine masseter muscle (myosin); rabbit muscle (actin)

actin.PsoS1 [3] = experiment: ADP dissociation constant in the presence of phosphate (KADP+Pi) and calculated KPi app, psoas; assay type: binding, rabbit; conditions: 30 mM Pi
actin.MassS1 [4] = target: T1, actin.MassS1; design: method as in Bloemink et al. (4); conditions: ref Bloemink et al. (4); cited from earlier work
actin.MassS1 [5] = target: T1, actin.MassS1; experiment: ADP release rate constant (k-AD), ADP displacement by excess ATP; assay type: biochemical, bovine; design: effect of Pi on kobs of ADP release / increase in kobs of ADP release in the presence of phosphate / activation energy (Ea) of k−AD (ADP release): dose or concentration left out as unconfirmed; conditions: for kobs of ADP release (fast phase): 75 µM ADP displaced by 8 mM ATP; for activation energy (Ea) of k−AD (ADP release): Mass
Method: Two types of myosins were studied which are known to differ in their dissociation constant for nucleotides ([5], [51]). The rate constant for the release of ADP (k−ADP) is relatively slow for masseter S1 and can easily be measured in an ADP displacement experiment. This step is very fast for a fast muscle isoform and too fast to measure by current equipment. Briefly, actin.^MassS1 saturated with 75 µM of ADP (A.M.D complex) was mixed with a large excess of ATP (8 mM) in the stopped flow. Then the kobs values, fitted to a single exponential equation (Eqn 1) defined the rate constant by which ADP is released by the ternary A.M.D complex (k−AD).
The temperature dependence of the above studied biochemical steps K1k+2, KADP, KPi, and KADP+Pi data were plotted as the natural logarithm of the measured parameter against the reciprocal of temperature in degrees Kelvin (1/T °K) and fitted with linear regression using the Arrhenius (rate constants) or Van’t Hoff (equilibrium constants) equations(7)) lnK1k+2=ln(A)−Ea/RT (8)) lnKeq=ΔS°/R−ΔH°/RT where Ea stands for activation energy, R is the gas constant, and A is a preexponential factor. The values of –Ea/R or or ΔH°/R were derived from the slopes.

actin.MassS1 [6] = target: T1, actin.MassS1; experiment: ADP dissociation constant (KADP) by competitive inhibition of ATP-induced dissociation, masseter; assay type: binding, bovine; conditions: for kobs of ATP-induced dissociation with ADP present: 25 µM ATP, 20°C, pH 7.0
Method: In a similar process, ADP dissociation constant (KADP), which defines ADP affinity for actin.S1, was measured by adding to the mixture ADP as a competitive inhibitor of ATP binding. In this case it is convenient to add the ADP to the ATP solution, i.e., 0.5 µM pyr.actin.S1 was mixed with 25 µM ATP with various concentrations of ADP present with the ATP (from 0 to 1200 µM). This approach assumes that ADP is in rapid equilibrium with the actin.S1 complex on the time scale of the ATP-induced dissociation reaction. This was ensured by using the low (25 µM) concentration of ATP. That this assumption holds was tested by repeating the measurement with ADP preincubated with actin.S1 and then mixing with ATP. The observed rate constants were identical in each case.
as §1

In the case of Nc1ncnc2c1ncn2[C@@H]1O[C@H](COP(=O)(O)OP(=O)(O)O)[C@@H](O)[C@H]1O [ADP], the “kobs of ATP-induced dissociation with ADP present” value (“kobs of ATP-induced dissociation” for short) (actin.PsoS1 [1]; 0.25 mM ADP, pH 7.0) is reported as 45.9 s⁻¹, the “kobs of ATP-induced dissociation” value (actin.PsoS1 [1]; 1 mM ADP, pH 7.0) is reported as 21.4 s⁻¹ and the “kobs of ATP-induced dissociation” value (actin.PsoS1 [1]; 4 mM ADP, pH 7.0) is reported as 14.5 s⁻¹. It also gave a Kd (actin.PsoS1 [1]; Psoas S1, pH 6.2, 10°C, read-out: KADP) of 256 ± 32 µM, a Kd (actin.PsoS1 [1]; Psoas S1, pH 6.2, 20°C, read-out: KADP) of 228 ± 36 µM and a Kd (actin.PsoS1 [1]; Psoas S1, pH 6.2, 30°C, read-out: KADP) of 236 ± 29 µM. It also gave a Kd (actin.PsoS1 [1]; Psoas S1, pH 7.0, 10°C, read-out: KADP) of 201 ± 34 µM, a Kd (actin.PsoS1 [1]; Psoas S1, pH 7.0, 20°C, read-out: KADP) of 203 ± 13 µM and a Kd (actin.PsoS1 [1]; Psoas S1, pH 7.0, 30°C, read-out: KADP) of 232 ± 29 µM. For the same compound, the Kd (actin.PsoS1 [1]; psoas actin.S1, between 10 and 30°C, pH 7.0, read-out: ADP affinity (KADP)) was roughly 200 µM, the Kd (actin.MassS1 [2]; Masseter S1, pH 6.2, 10°C) was 52.2 ± 4.2 µM and the Kd (actin.MassS1 [2]; Masseter S1, pH 6.2, 20°C) was 82.6 ± 5.7 µM. The Kd (actin.MassS1 [2]; Masseter S1, pH 6.2, 30°C) was 175 µM, the Kd (actin.MassS1 [2]; Masseter S1, pH 7.0, 10°C) was 22.5 ± 2.9 µM and the Kd (actin.MassS1 [2]; Masseter S1, pH 7.0, 20°C) was 44.4 ± 4.6 µM. It also gave a Kd (actin.MassS1 [2]; Masseter S1, pH 7.0, 30°C) of 79.3 ± 6.5 µM, a Kd (actin.PsoS1 [3]; Psoas S1, pH 6.2, 10°C, read-out: KADP+Pi) of 665 ± 39 µM and a Kd (actin.PsoS1 [3]; Psoas S1, pH 6.2, 20°C, read-out: KADP+Pi) of 514 µM. It also gave a Kd (actin.PsoS1 [3]; Psoas S1, pH 6.2, 30°C, read-out: KADP+Pi) of 926 ± 73 µM, a Kd (actin.PsoS1 [3]; Psoas S1, pH 7.0, 10°C, read-out: KADP+Pi) of 770 ± 37 µM and a Kd (actin.PsoS1 [3]; Psoas S1, pH 7.0, 20°C, read-out: KADP+Pi) of 919 ± 72 µM. For the same compound, the Kd (actin.PsoS1 [3]; Psoas S1, pH 7.0, 30°C, read-out: KADP+Pi) was 942 µM and 1020 µM, the Kd (actin.PsoS1 [3]; psoas, 10–20°C, pH 7.0, read-out: apparent KADP in the presence of Pi) was roughly 500 µM and the “kobs of ADP release, published result” value (actin.MassS1 [4]) was 94 s⁻¹. The “kobs of ADP release (fast phase)” value (actin.MassS1 [5]; pH 7.0, 5°C) was 16.2 s⁻¹, the “kobs of ADP release (fast phase)” value (actin.MassS1 [5]; pH 7.0, 10°C) was 26.0 s⁻¹ and the “kobs of ADP release (fast phase)” value (actin.MassS1 [5]; pH 7.0, 20°C) was 85 s⁻¹ and 85.0 s⁻¹. The “kobs of ADP release (fast phase)” value (actin.MassS1 [5]; pH 7.0, 30°C) was 273 s⁻¹, the “kobs of ADP release (fast phase)” value (actin.MassS1 [5]; pH 7.0, […]°C) was 46.3 s⁻¹ and the “activation energy (Ea) of k−AD (ADP release)” value (“activation energy (Ea) of k−AD” for short) (actin.MassS1 [5]; pH 6.2, + […] mM Pi) was 21.2 ± 0.932 kcal/mol. The “activation energy (Ea) of k−AD” value (actin.MassS1 [5]; pH 6.2, no Pi) was 20.2 ± 1.46 kcal/mol, the “activation energy (Ea) of k−AD” value (actin.MassS1 [5]; pH 7.0, + […] mM Pi) was 22.6 ± 1.2 kcal/mol and the “activation energy (Ea) of k−AD” value (actin.MassS1 [5]; pH 7.0, no Pi) was 18.1 ± 0.98 kcal/mol. The “kobs of ATP-induced dissociation” value (actin.MassS1 [6]; 25 µM ADP) was 21.7 s⁻¹, the “kobs of ATP-induced dissociation” value (actin.MassS1 [6]; 100 µM ADP) was 9.1 s⁻¹ and the “kobs of ATP-induced dissociation” value (actin.MassS1 [6]; 500 µM ADP) was 2.6 s⁻¹. The “weakening of KADP at pH 6.2 vs pH 7.0” value (actin.MassS1 [6]; MassS1, 30°C) was 1.5 fold, the Kd (actin.MassS1 [6]; Masseter S1, pH 6.2, 10°C) was 22 µM and 21.8 µM and the Kd (actin.MassS1 [6]; Masseter S1, pH 6.2, 20°C) was 48.4 µM and 47 µM and 46.8 µM. For the same compound, the Kd (actin.MassS1 [6]; Masseter S1, pH 6.2, 30°C) was 83.9 ± 4.7 µM, the Kd (actin.MassS1 [6]; Masseter S1, pH 7.0, 10°C) was 9.6 µM and 10 µM and 10.3 µM and the Kd (actin.MassS1 [6]; Masseter S1, pH 7.0, 20°C) was 31 µM and 31.3 µM and 29.7 µM. For the same compound, the Kd (actin.MassS1 [6]; Masseter S1, pH 7.0, 30°C) was 56.2 ± 6.5 µM.
